The source of these data is US20040261961A1, “Wood treatment solution and process for improving the preservation of wood” (priority 2001, published 2004).

Where two headings read alike, the source gives them in different places.

The test system of one experiment is Poria placenta. How it is done:
(§1) The tests were carried out by using test specimens made from spruce or pine wood. The size of specimens made of pine was approx. 20×15×2.4 cm^3 and respectively the size of the specimens made from spruce was approx. 20×12×7.2 cm^3. One half of the wood specimens were subjected to a heat treatment at 190° C. […] One half of the specimens were subjected to no heat treatment. The wood specimens were measured and weighed before the chemical treatment. Neither chemical nor heat treatment was carried out on the reference specimens that were used in the accelerated rotting tests described below.
(§2) The temperature of the solution was 40-50° C. In the vessel there prevailed a pressure of approx. 150 kPa (1.5 bar), by means of which the solution was “forced” into the wood. The treatment time was 2 h. After the chemical treatment the wood specimens were dried in an incubator overnight at 80-90° C.
(§3) In the next phase the specimens treated above were sent to a rot fungus test. European standard EN 113 was applied in carrying out the test. The wood was exposed to conditions as rigorous as possible with respect to decay: temperature was approx. 30° C. and humidity 100%, and bad rot fungi such as Poria placenta, Gloeophyllum trabeum and Coniophora puteana had been introduced into the testing space (culture flask). These fungi are present in all rotting objects. The test lasted for 4 months. […] The rotting of such wood should in an accelerated rotting test be such that the weight loss is at least 20% with each fungus species. The specimens were weighed before the beginning of the test.
(§4) The results of the accelerated rotting tests for spruce are shown in Tables 2-4 and for pine in Tables 5-7.

A further experiment relates to Gloeophyllum trabeum. As to the method:
as §1, §2, §3, §4

In a further experiment the test system is Coniophora puteana. How it is done: as §1, §2, §3, §4
Experiment [1] deals with Poria placenta, Gloeophyllum trabeum and Coniophora puteana. To be noted: Ca formate treatment in addition to heat treatment. As to the method:
as §3, §4

The subject of a further experiment is rot fungi. To be noted: closed and humid space containing rot fungi; potassium formate dissolved in water. As to the method: Next, a test was performed in which a piece of wood was impregnated with potassium formate. This and an untreated wood specimen were placed in a closed and humid space containing rot fungi.
The conditions of experiment [2]: board kept several days in strong potassium formate solution; buried in garden plot from summer to following summer. From the text:
A board specimen was kept for several days in a strong potassium formate solution. After impregnation, the board was in summer buried in a garden plot together with untreated board taken from the same board specimen.

With `O=C[O-].O=C[O-].[Ca+2]` [Ca formate, calcium formate], the “Rot resistance class according to standard EN 350-1994” value in the experiment with Poria placenta (treated pine) was “Class 3”; in the experiment with Poria placenta (treated spruce) it was “Class 3”; in the experiment on Gloeophyllum trabeum (treated pine), “Class 1”; with Gloeophyllum trabeum (treated spruce), “Class 1”; in the experiment with Coniophora puteana (treated pine) it was “Class 1”; with Coniophora puteana (treated spruce), “Class 1”. Besides, the “Rotting of wood (overall conclusion)” value in experiment [1] is listed as “prevented almost completely”.

For `O=C[O-].[K+]` [potassium formate], in the experiment with rot fungi, the “Decay activity in the experimental space” value is “inhibited all decay activity”. Also, in experiment [2], the “Decay of impregnated board after burial” value is “without any decay”.
